These results are taken from ChEMBL document CHEMBL3751741, “Discovery of a potent and highly fluorescent sirtuin inhibitor” (Medchemcomm, 2015).

For one data set, the system named is MDA-MB-468. In words: Antiproliferative activity against human MDA-MB-468 cells assessed as cell viability at 50 uM after 72 hrs by MTS assay (reference value: 100 +/- 8.06%). The format is functional. The settings on record: MDA-MB-468, 72 h, read-out: Activity.
For data set [1], the target named is T1, NAD-dependent protein deacetylase sirtuin-2 (Homo sapiens) (UniProt Q8IXJ6).
T1 sequence (whole entry): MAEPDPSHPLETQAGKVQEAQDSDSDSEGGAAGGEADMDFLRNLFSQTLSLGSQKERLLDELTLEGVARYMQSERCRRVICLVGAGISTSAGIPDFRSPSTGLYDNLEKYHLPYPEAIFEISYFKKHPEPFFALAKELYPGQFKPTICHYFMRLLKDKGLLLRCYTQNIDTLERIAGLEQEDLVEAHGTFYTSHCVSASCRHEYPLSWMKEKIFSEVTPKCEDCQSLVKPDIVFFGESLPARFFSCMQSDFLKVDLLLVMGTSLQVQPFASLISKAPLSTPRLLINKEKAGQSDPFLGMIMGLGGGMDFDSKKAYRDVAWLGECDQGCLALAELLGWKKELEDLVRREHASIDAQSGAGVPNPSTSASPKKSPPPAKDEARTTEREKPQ
As to the kind of experiment: Inhibition of recombinant human C-terminal His-tagged SIRT2 (13 to 319 residues) using human p53 derived peptides as substrate at 50 uM incubated for 45 mins by fluorescence assay.

Another data set deals with CCRF-CEM. In words: Antiproliferative activity against human CCRF-CEM cells assessed as cell viability at 50 uM after 72 hrs by MTS assay (reference value: 100 +/- 5.54%). The settings on record: read-out: Activity. The format is functional.
Data set [2] can be described thus: Antiproliferative activity against human HCT116 cells assessed as cell viability at 50 uM after 72 hrs by MTS assay (reference value: 100 +/- 6.01%). The format is functional. The settings on record: HCT-116, 72 h, read-out: Activity.
In data set [3] the target is T2, NAD-dependent protein deacetylase sirtuin-2 (Homo sapiens, UniProt Q8IXJ6).
T2 sequence (Q8IXJ6 whole entry): T1 sequence (whole entry)
In words: Inhibition of recombinant human C-terminal His-tagged SIRT2 (13 to 319 residues) using human p53 derived peptides as substrate incubated for 45 mins by fluorescence assay.

For data set [4], the target named is T3, NAD-dependent protein deacetylase sirtuin-1 (Homo sapiens, UniProt Q96EB6).
T3 sequence (Q96EB6 whole entry): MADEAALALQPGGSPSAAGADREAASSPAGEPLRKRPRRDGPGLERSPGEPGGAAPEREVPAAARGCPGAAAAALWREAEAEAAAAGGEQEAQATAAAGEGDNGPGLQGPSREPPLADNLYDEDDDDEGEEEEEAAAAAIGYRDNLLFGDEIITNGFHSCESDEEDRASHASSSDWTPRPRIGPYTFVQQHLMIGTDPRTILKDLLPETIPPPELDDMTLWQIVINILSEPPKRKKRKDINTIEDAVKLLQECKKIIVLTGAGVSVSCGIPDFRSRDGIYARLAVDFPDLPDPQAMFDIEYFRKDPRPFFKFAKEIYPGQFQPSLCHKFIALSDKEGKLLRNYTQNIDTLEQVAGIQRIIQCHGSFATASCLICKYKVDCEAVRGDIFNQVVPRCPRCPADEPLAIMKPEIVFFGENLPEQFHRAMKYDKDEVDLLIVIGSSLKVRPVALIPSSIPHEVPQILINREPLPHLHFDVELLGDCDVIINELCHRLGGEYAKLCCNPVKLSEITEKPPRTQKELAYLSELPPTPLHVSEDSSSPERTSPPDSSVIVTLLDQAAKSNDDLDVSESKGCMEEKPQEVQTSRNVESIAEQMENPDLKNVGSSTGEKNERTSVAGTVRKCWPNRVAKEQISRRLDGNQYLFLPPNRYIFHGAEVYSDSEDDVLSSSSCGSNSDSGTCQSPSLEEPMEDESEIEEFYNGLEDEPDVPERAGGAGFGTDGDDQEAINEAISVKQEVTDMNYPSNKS
In words: Inhibition of recombinant human N-terminal GST-tagged SIRT1 (193 to 741 residues) using human p53 derived peptides as substrate incubated for 45 mins by fluorescence assay.

Data set [5] addresses T4, NAD-dependent protein deacetylase sirtuin-1 (Homo sapiens) (UniProt Q96EB6).
T4 sequence (whole entry): T3 sequence (Q96EB6 whole entry)
In words: Inhibition of recombinant human N-terminal GST-tagged SIRT1 (193 to 741 residues) using human p53 derived peptides as substrate at 50 uM incubated for 45 mins by fluorescence assay.

Data set [6] in a line: Drug uptake in cytoplasm of human HCT116 cells at 50 uM by fluorescence microscopy. To be noted: hct-116, 50 µM. The format is ADME, cell-based.
For data set [7], the target named is T1, NAD-dependent protein deacetylase sirtuin-2 (Homo sapiens). As to the kind of experiment: Reversible inhibition of recombinant human C-terminal His-tagged SIRT2 (13 to 319 residues) using human p53 derived peptides as substrate at 10 uM incubated for 45 mins by fluorescence assay.
Data set [8] is described as follows: Drug uptake in cytoplasm of human CCD18 cells at 50 uM by fluorescence microscopy. The format is ADME, cell-based. To be noted: ccd18, 50 µM.
The nature of data set [9]: Aqueous solubility of compound in water containing 0.5% DMSO by UV-spectrophotometry analysis. The format is physicochemical.
Data set [10] deals with T1, NAD-dependent protein deacetylase sirtuin-2 (Homo sapiens). As to the kind of experiment: Inhibition of SIRT2 in human HCT116 cells assessed as increase in alpha-tubulin acetylation up to 50 uM incubated for 24 hrs by Western blotting method. To be noted: HCT-116. The format is cell-based.
For data set [11] the target is unchanged. As to the kind of experiment: Competitive inhibition of recombinant human C-terminal His-tagged SIRT2 (13 to 319 residues) using human p53 derived peptides as substrate incubated for 45 mins by fluorescence assay in presence of increasing NAD+ level.

Converted amounts (≈) assume the structure as drawn. The source made the active and inactive calls. The rule behind the calls is not given here.

`CCOC(=O)c1ccc2[nH]c(-c3ccc(OC)cc3)nc2c1`: the values for the viability at 50 µM (in the data set with MDA-MB-468; in the data set with CCRF-CEM; in [2]) were 82.8%, 87.4% and 75.6%, respectively. Besides, in data set [1], the inhibition stood at 26%.
`CCOC(=O)c1ccc2[nH]c(-c3ccc(N(C)C)cc3)nc2c1`: the results for the viability at 50 µM (with MDA-MB-468; in the data set with CCRF-CEM; in data set [2]) were 31.1%, 49.5% and 29.7%, respectively. Also, the inhibition in [1] worked out at 87.5%. The IC50 in data set [3] stood at 13.6 µM.
Regarding `CCOC(=O)c1ccc2[nH]c(-c3ccc(O)cc3)nc2c1`, the viability at 50 µM in the data set on MDA-MB-468 was found to be 76.5%; in the data set with CCRF-CEM, 85.5%; in [2], 77.1%. In addition, the inhibition in data set [1] is 42.9%.
`N#C/C(=C\c1ccc(-c2cc(Cl)ccc2Cl)o1)C(=O)Nc1cccc2ncccc12`: in [4], the IC50 is 68 µM.
`CCOC(=O)c1ccc2[nH]c(-c3ccccc3)nc2c1`: the viability at 50 µM in the data set with MDA-MB-468 was found to be 49.3%; with CCRF-CEM, 58.3%; in [2], 29.7%. The results for the inhibition in data set [5] and in data set [1] were 24.7% and 36.3%, respectively.
For `CCOC(=O)c1ccc2[nH]c(-c3ccc(N4CCOCC4)cc3)nc2c1`, the viability at 50 µM turned out to be 42.6% in the data set with MDA-MB-468, 37.8% with CCRF-CEM and 54.5% in data set [2]. The inhibition in [5] is 37.8%; in data set [1], 60.7%. Moreover, the IC50 in data set [3] was found to be 52.9 µM; in data set [4] it was 57.5 µM.
On to `CCOC(=O)c1ccc2[nH]c(-c3ccc(C(C)(C)C)cc3)nc2c1`, for which the viability at 50 µM in the data set on MDA-MB-468 amounted to 54.6%; in the data set with CCRF-CEM, 82.2%; in data set [2], 54.2%. In data set [1], the inhibition was 50.2%.
The matching figures for `CCOC(=O)c1ccc2[nH]c(-c3ccc(C)cc3)nc2c1`: 89.1%, 61.2%, 48.4% and 45.2%.
Take `CCOC(=O)c1ccc2[nH]c(-c3ccc(N4CCCCC4)cc3)nc2c1`: the viability at 50 µM in the data set with MDA-MB-468 stood at 34%; in the data set on CCRF-CEM, 36.3%; in data set [2], 15.9%. Moreover, the inhibition in [1] was 93.2%. The IC50 in data set [3] is 9 µM. Further, the Drug uptake entry in data set [6] and in data set [8] was “Active” throughout. Moreover, the inhibition result in data set [7], in data set [10] and in [11] was “Active” each time. The molecule further displayed a solubility in data set [9] of 59 µM (≈ 20.6 µg/mL).
